The source of these data is PMC11402852, “Genotoxicity of selected cannabinoids in human lymphoblastoid TK6 cells” (Archives of Toxicology, 2024).

Data set [1] deals with TK6 cells. Put plainly: Mitotic disturbance assay. The settings on record: 6 h, without S9; CBG 30 µM, CBD 15 µM, CBC 15 µM, CBDV 40 µM, CBN 15 µM; vs solvent control. It is filed as cell-based, human. Here is the method: The cells were treated for 6 h with CBG 30 µM, CBD 15 µM, CBC 15 µM, CBDV 40 µM, and CBN 15 µM. The positive control was vincristine sulphate 0.0121 µM, and the solvent control was DMSO. For the experiments with or without the S9 mix (final concentration 0.25%), TK6 cells were treated with either CBDV 40 µM or vincristine sulphate 10 ng/mL for 6 h. DMSO with or without S9 mix was used as control. Further procedure was as described for micronucleus experiments, except with direct harvest after cannabinoid treatment without the incubation period with cytochalasin B. Two slides were evaluated with a Nikon Eclipse 55i fluorescent microscope for each experimental condition. The independent experiments were conducted three times.
The cells were counted in categories apoptosis, interphase, prophase, metaphase, anaphase-telophase, disturbed metaphase, and disturbed anaphase-telophase in 1000 cells. The mitotic index was calculated as a sum of the number of cells in prophase, metaphase, anaphase-telophase, disturbed metaphase, and disturbed anaphase-telophase in 1000 cells. Disturbed metaphase and disturbed anaphase-telophase were defined as deviating from the usual appearance of mitoses. Disturbed mitoses were assessed in 100 mitotic cells per slide.

Data set [2] concerns human lymphoblastoid TK6 cells. Briefly: Kinetochore analysis of micronuclei. Type of data set: cell-based. Conditions: 4 h. The method, then:
For kinetochore analysis, cells were treated for 4 h with CBG 30 µM, CBD 15 µM, CBC 15 µM, CBDV 40 µM, and CBN 15 µM. The positive controls were MMS 40 µM, and vincristine sulphate 0.0121 µM; the solvent control was DMSO. After 4 h of treatment, the culture medium was renewed, and cells were exposed for 24 h to the cytokinesis inhibitor cytochalasin B (3 μg/mL). Then, cells were harvested, and slides were prepared with cytospin centrifugation. The cells were fixed in ice-cold methanol for 2 h. Kinetochores were stained overnight with undiluted primary anti-centromere antibody at 37 °C followed by 1:20 diluted FITC-conjugated secondary antibody at 37 °C for 2 h. Nuclei were counterstained with Hoechst 33,258 (5 µg/mL, 3 min). The experiment was performed one time. Per compound, 200 micronuclei were evaluated for kinetochore signal presence (Fig. 3). The evaluation was performed with a Keyence BZ-X800 microscope. The slides used in kinetochore evaluation were also evaluated for the number of induced micronuclei as described in the above paragraph cytokinesis‑block micronucleus assay.

Data set [3] deals with TK6 cells. Put plainly: Tubulin visualization. Type of data set: cell-based, human. Conditions: 6 h; CBG 30 µM, CBD 15 µM, CBC 15 µM, CBN 15 µM; visually compared to control, not quantified. The method, then:
For tubulin visualization, cells were treated with CBG 30 µM, CBD 15 µM, CBC 15 µM, CBDV 40 µM, and CBN 15 µM. The positive control was vincristine sulphate 0.0121 µM, and the solvent control was DMSO. Cells were treated for 6 h and then harvested. Slides were prepared with cytospin centrifugation. The cells were fixed in ice-cold methanol for 2 h. Following fixation, cells were permeabilized with 0.1% Tween20 in 1 × phosphate-buffered saline (PBS) for 5 min. Next, the anti-α-tubulin antibody was applied in 1:50 dilution. Antibody was diluted with 5% FCS in 1 × PBS. The antibody was incubated in a humid chamber at 4 °C for 24 h. Afterwards, the antibody was removed by washing slides twice with 0.5% Tween20 in 1 × PBS for 5 min. Nuclei were counterstained with Hoechst 33,258 (5 µg/mL, 3 min). The visualization was performed with a Keyence BZ-X800 microscope.

Details of data set [4]: method as in Taylor et al. [2018]. Conditions: oral solution of CBD, healthy adults, ref Taylor et al. [2018], cited from earlier work.
Data set [5] relates to human buccal cell line TR146. Set-up: method as in Russo et al. ([2019]). The settings on record: ref Russo et al. ([2019]), cited from earlier work.
The subject of the next data set is human hepatoma cells. The arrangement: method as in Russo et al. ([2019]). Conditions: 3 h of treatment, ref Russo et al. ([2019]); cited from earlier work.
The next data set relates to colon-derived cells. Set-up: method as in Aviello et al. ([2012]). The settings on record: 24 h of treatment, ref Aviello et al. ([2012]); cited from earlier work.
The test system of data set [6] is human lymphoblastoid TK6 cells. Set-up: method as in Henderson et al. ([2023]). The settings on record: TK6, with and without metabolic activation 4 h, and 27 h without metabolic activation; ref Henderson et al. ([2023]); cited from earlier work.
The test system of data set [7] is bone marrow or liver of rats. Set-up: method as in European Medicine Agency (EMA) ([2019]). Conditions: bone marrow or liver of rats after CBD treatment; ref European Medicine Agency (EMA) ([2019]); cited from earlier work.
For another data set, the system named is bone marrow of mice. The arrangement: method as in Zimmerman and Raj ([1980]). The settings on record: ref Zimmerman and Raj ([1980]); cited from earlier work.
The test system of data set [8] is human gastric cancer, Sertoli and Leydig cells. The arrangement: method as in Zhang et al. [2019]; Li et al. [2022], [2023]. The settings on record: 24 h of treatment; upregulated p53, reduced CDK2 and cyclin E; ref Zhang et al. [2019]; Li et al. [2022], [2023]; cited from earlier work.
For data set [9], the system named is human lymphoblastoid TK6 cells. Briefly: Cytokinesis-block micronucleus (CBMN) assay.

Where two headings read alike, the source gives them in different places.

As for `C=C(C)[C@@H]1CCC(C)=C[C@H]1c1c(O)cc(CCCCC)cc1O` [CBD, cannabidiol], the Mitotic index entry with TK6 cells [1] was “significantly decreased the mitotic index”. For the same compound, the “Kinetochore (+) MNi, %” value in [2] (of 200 micronuclei, CBG 30 µM, CBD 15 µM, CBC 15 µM, CBDV 40 µM, CBN 15 µM, MMS 40 µM, vincristine 0.0121 µM, one experiment) is reported as 47%. For the same compound, the “Kinetochore (+) induced MNi” value in data set [2] (treatment – control (basal level of micronuclei subtracted), same concentrations) came to 63.7%. Further, the “Multipolar and monopolar tubulin aggregation” value with TK6 cells [3] is listed as “observed more frequently”. The “Mean plasma Cmax following a high-fat meal” value in data set [4] (high-fat meal) is 1628 ng/mL. Moreover, the Cmax is 5.2 µM in [4] (high-fat meal, read-out: Mean plasma Cmax following a high-fat meal) and 1.1 µM in [4] (read-out: Mean plasma Cmax). In addition, the “Mean plasma Cmax” value in data set [4] was 335.4 ng/mL. The “DNA damage (comet assay)” value in [5] (TR146, after 3 and 24 h) is “damaged DNA”; with colon-derived cells, “did not induce DNA damage”. Also, the “Genotoxic properties with addition of liver enzymes (comet assay)” value in data set [5] (TR146, with liver enzymes) is listed as “increased the genotoxic properties”. Further, the Micronucleus induction result in the data set on human hepatoma cells is reported as “significant induction of micronuclei”; in data set [9] (4 h treatment, without metabolic activation, at least one concentration, vs solvent control), “significant induction of micronuclei”. Besides, in [6], the Micronucleus results is on record as “negative micronucleus results”. The “Micronucleus and comet assay in vivo” value in [7] is given as “negative results”. For the same compound, the “Micronuclei in bone marrow in vivo” value in the data set on bone marrow of mice is given as “induction of micronuclei”. In [8], the Cell cycle effect entry was “G1 phase cell cycle arrest”. Moreover, the “BMDL (10th percentile)” value in data set [9] (10th percentile of BMD50 estimation, 4 h, micronucleus data) is listed as 2.1 µM. Besides, the “4 h BMD50” value in [9] (50% increased relative genotoxicity vs controls, from micronucleus data, 4 h treatment, without S9, Bayesian BMD analysis) is 8.7 µM. Besides, the “BMDU (90th percentile)” value in [9] (90th percentile of BMD50 estimation, 4 h, micronucleus data) is 21.1 µM. Moreover, the “Number of micronuclei with S9 mix vs without” value in [9] (4 h, CBG 30 µM, CBD 15 µM, CBC 15 µM, CBDV 40 µM, CBN 15 µM, 0.25% S9 mix) is given as “significant reduction in the number of micronuclei”.

One may read the Cmax as the highest concentration seen after dosing.
